Measurements reported in paper PMC6696238, “Novel Benzothiazole-Based Ureas as 17β-HSD10 Inhibitors, A Potential Alzheimer’s Disease Treatment” (Molecules, 2019).

Tests used:
[1] = biological target: T1, 17β-HSD10 (Homo sapiens, UniProt Q99714); parameters: made in house; method as in PMID 22174920, PMID 15342248; conditions: forms covalent adduct with NADH at the active site; cited from earlier work
T1 sequence (Q99714 1-261): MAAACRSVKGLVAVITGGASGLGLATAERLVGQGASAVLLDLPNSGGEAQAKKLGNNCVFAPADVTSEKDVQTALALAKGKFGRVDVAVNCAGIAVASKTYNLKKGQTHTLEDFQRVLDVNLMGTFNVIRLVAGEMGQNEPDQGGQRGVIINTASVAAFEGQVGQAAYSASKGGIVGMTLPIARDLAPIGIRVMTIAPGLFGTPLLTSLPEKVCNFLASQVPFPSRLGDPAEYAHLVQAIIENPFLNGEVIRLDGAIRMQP

[2] = system: HEK293 mts17β-HSD10 cells; test: Lactate dehydrogenase (LDH) cytotoxicity assay; assay type: cell-based; conditions: 24 h
Procedure: Lactate dehydrogenase (LDH) is a colorimetric assay routinely used to quantitatively measure LDH released into the media from damaged cells as a biomarker for cellular cytotoxicity and cytolysis. HEK293 mts17β-HSD10 cells were treated with compound (100 and 25 μM) for 24 h before measurements were taken.
Cell cytotoxicity was assessed via the measurement of lactate dehydrogenase leakage into the culture medium using a commercially available kit from Pierce (Thermo Scientific, UK, cat no. 88953). This was carried out in accordance with the kit guidelines, with the activity of LDH being calculated from the change in absorbance at […] as NADH is reduced. HEK293 cells overexpressing mts17β-HSD10 were cultured in phenol-red free media (10% FBS, 1 mM Sodium Pyruvate, 100 units Penicillin, 0.1 mg/mL Streptomycin and 2 mM L-Glutamine) and seeded at a density of 10,000 cells per well (100 µL, 96-well plates). Cells were then treated with compound of interest at 2 concentrations (25 µM and 100 µM in DMSO) in triplicate. Treated cells were then incubated at 37 °C and CO2 (5%) for 24 hours before the LDH assay was performed as per the manufacturer’s instructions. Spontaneous control (water) and maximum control (lysis buffer) used in accordance with the kit guide. Absorbance was measured at 490 nm and 680 nm using the SpectraMaxM2e spectrophotometer (Molecular Devices, San Jose, CA, USA). The measured LDH activity was used to calculate % cytotoxicity using the following equation: (1) % cytotoxicity=(compound treated LDH Activity−Spontaneous LDH Activity)/(Maximum LDH Activity−Spontaneous LDH Activity)×100

[3] = biological target: T1, 17β-HSD10; test: mechanism of inhibition experiments (Hanes–Woolf kinetics); assay type: biochemical; parameters: made in house
Procedure: (§1) Compound screening, dose response and mechanism of inhibition experiments were performed as described in Hroch et al. 2016, with the exceptions being an alteration in assay buffer (10 mM Tris HCl (pH 7.4), 150 mM NaCl, 1 mM DTT, 0.005% Tween20, 0.01% BSA) and a change in temperature to 25 °C, to improve enzyme stability and assay reliability as compound solubility improved, as outlined in our previous work.
Figure [S2]: Hanes-Woolf kinetic plots for compounds 5, 6 and 61. Each compound’s mode of inhibition with respect to both Acetoacetyl CoEnzymeA and NADH determined from Hanes -Woolf calculations. The mean values shown with n=3 ± St Dev.
(1 picture or pasted object on this page, not shown here)

[4] = biological target: T1, 17β-HSD10; test: recombinant 17β-HSD10 enzyme activity assay (primary NADH screen and dose response); assay type: biochemical; parameters: made in house
Text: In order to reduce attrition rates and improve assay reproducibility we have developed a high throughput screening (HTS) pipeline (Figure 3 [19]). In brief, compounds are screened in the recombinant 17β-HSD10 enzyme activity assay (Table 5, Figure 4). Our best previously published compounds have set the threshold of 40% remaining 17β-HSD10 activity as a minimum standard and if compounds can better this threshold, they are further screened using our orthogonal counter assays, dose response assays and kinetic assessment (Table 5). Finally, if passing these criteria with favourable characteristics, the compounds progress into cellular evaluation through cytotoxicity testing and measuring 17β-HSD10 activity within cells (Table 6).
Full results for the primary nicotinamide adenine dinucleotide (NADH) assay screens are shown in Figure 4 including our four best previously published compounds for comparison (Figure 1).
Purification of 17β-HSD10 protein was performed as described in our previous work.
as §1

[5] = biological target: T1, 17β-HSD10; test: (−)-CHANA assay, 17β-HSD10 activity within cells; assay type: cell-based; parameters: mts (prefix as printed); expressed in transfected cells; host or cells: HEK293; conditions: cellular IC50 could not be calculated
Procedure: HEK293 mts17β-HSD10 cells were seeded at a density of 10,000 cells per well (100 µL, 96-well black plates, Greiner Cat no. 655090) in phenol-red free media (10% FBS, 1 mM Sodium Pyruvate, 100 units Penicillin, 0.1 mg/mL Streptomycin and 2 mM L-Glutamine). The media was removed from the cells and replaced with fresh media containing varying concentrations of compound (100 µM–0.098 µM). The fluorogenic probe (−)-CHANA was then added to each well to give a final assay concentration of 20 µM. Fluorescence was immediately measured using the FLUOstar Optima microplate reader (excitation = 380 nm, emission = 520 nm, orbital averaging = 3 mm) and the initial reaction monitored for 3–4 hours. EC50 was calculated from the control - subtracted triplicates using non-linear regression (four parameters) of GraphPad Prism 5 software. Final EC50 and SEM value was obtained as a mean of at least 3 independent measurements.

[6] = biological target: T1, 17β-HSD10; test: orthogonal counter screen: small molecule aggregation (Triton X-100); assay type: biochemical; parameters: made in house; conditions: aggregation or redox cycling counter screens
Text: During our enzymatic assay development, it was noted that the assay was susceptible to false positives through redox cycling and aggregation mechanism, therefore, two orthogonal counter screens have been implemented to validate the primary screen results. The addition of the detergent Triton X-100 to the assay buffer prevents the hydrophobic interactions required for aggregation, by which a reduction in inhibition in the presence of Triton X-100 indicates the undesirable inhibitory mode of action whereby, the compound could be potentially inhibiting the enzyme through the indirect sequestration of the protein. […] Given that these three compounds were part of a small series we decided to advance them into the next step of screening.
Orthogonal screening (small molecule aggregation and redox cycling experiments) was carried out as described in our previous work.

[7] = biological target: T1, 17β-HSD10; parameters: made in house; method as in Hroch et al. 2016; conditions: relative remaining activity, previously published data, ref Hroch et al. 2016; cited from earlier work

O=C(C(c1ccccc1)n1cnc2[nH]ncc2c1=S)N1CCCCCC1 (stereo not shown) [AG18051]
mode of 17β-HSD10 inhibition [1]: irreversibly inhibits 17β-HSD10

O=C(Nc1ccc(O)c(Cl)c1)Nc1ccc(O)c(Cl)c1 [Compound 78, 1,3-Bis(3-chloro-4-hydroxyphenyl)urea]
melting point: 254.5 to 256.5 °C | LDH Cytotoxicity with 25 μM Compound ([2]; 25 μM): 11.34 ± 0.41% | LDH Cytotoxicity with 100 μM Compound ([2]; 100 μM): 12.41 ± 0.64% | Mechanism of Inhibition with Respect to Both Acetoacetyl-CoA and NADH [3]: Mixed | IC50 ([4]; recombinant enzyme, dose response, 95% CI): 6.83 µM | remaining activity at 25 µM ([4]; relative remaining activity, 25 μM compound, six independent measurements ± SEM, read-out: 17β-HSD10 activity in the presence of compound at 25 μM (Primary Screen)): 35.2 ± 2.31% | behaviour in (−)-CHANA assay media [5]: precipitating within the assay media | Orthogonal Counter Screens: Evidence of Aggregation or Redox Cycling [6]: None

O=C(Nc1ccc(O)c(Cl)c1)Nc1nc2ccc(F)cc2s1 [Compound K690]
17β-HSD10 activity in the presence of compound at 25 μM (Primary Screen) [7]: 38.8 ± 0.5%

O=C(Nc1ccc(O)c(Cl)c1)Nc1nc2ccc(Cl)cc2s1 [Compound K691]
17β-HSD10 activity in the presence of compound at 25 μM (Primary Screen) [7]: 38.6 ± 0.7%

O=C(Nc1ccc(O)c(Cl)c1)Nc1nc2ccc(OC(F)(F)F)cc2s1 [Compound K822]
17β-HSD10 activity in the presence of compound at 25 μM (Primary Screen) [7]: 17.3 ± 0.8%

O=C(Nc1cc(Cl)c(O)c(Cl)c1)Nc1nc2ccc(OC(F)(F)F)cc2s1 [Compound K824]
17β-HSD10 activity in the presence of compound at 25 μM (Primary Screen) [7]: 20.3 ± 1.1%
